For orientation: Kd means the free concentration of one partner at which half of the binding sites on the other are occupied at equilibrium, for simple one-to-one binding. For orientation: Ki means a measure of affinity in units of concentration, obtained from inhibition or displacement. A low value points to tighter binding. As usually defined, the IC50 is the concentration that gives 50% inhibition.

Consider 17 molecules from ChEMBL document CHEMBL1777750, “Design strategies to target crystallographic waters applied to the Hsp90 molecular chaperone” (Bioorg Med Chem Lett, 2011).

Experiment [1] is described as follows: Binding affinity to HSP90 by isothermal titration calorimetry assay. Background: ITC needs no label: the signal is the heat of the interaction.
A short description of experiment [2]: Displacement of tritium-labeled resorcinol amide ligand from HSP90 by scintillation proximity assay. (In a scintillation proximity assay essentially only radioactivity close to the scintillant gives light.)
The target of experiment [3] is Heat shock protein HSP90 (Homo sapiens, UniProt P07900+P08238). The experiment in a line: Inhibition of HSP90 in human H1299 cells assessed as degradation of Akt protein after 24 hrs by luminex assay. It counts as cell-based.

Regarding `COc1ccccc1-c1cc(C)nc(N)n1`, in experiment [1], the dissociation constant (Kd) came out at 3500 nM. The molecule also came in with a Ki in experiment [2] of 7900 nM.
For the molecule `COc1cc(-c2nc(C)nc3[nH]c(C)c(C#N)c23)c(Cl)cc1Cl`, the half-inhibitory concentration (IC50) in experiment [3] was found to be 700 nM.
Molecule `Cc1cc(-c2ccccc2)nc(N)n1` came in with a Ki in experiment [2] of 22000 nM. In addition, the 50% inhibitory concentration (IC50) in experiment [3] was above 10000 nM.
On to `COc1cc(-c2nc(C)nc3[nH]cc(C#N)c23)c(Cl)cc1Cl`, for which, in experiment [3], the IC50 amounted to 1000 nM.
In experiment [2], `COc1cc(-c2cc(C)nc(N)n2)c(Cl)cc1Cl` had an inhibitory constant (Ki) of 140 nM. For the same molecule, the 50% inhibitory concentration (IC50) in experiment [3] is 10000 nM.
In turn, `Cc1cc(-c2ccc(Cl)cc2Cl)nc(N)n1` yielded a dissociation constant Kd in experiment [1] of 104 nM. Further, affinity in experiment [2] was put at a Ki of 350 nM. In addition, in experiment [3], the half-inhibitory concentration (IC50) came to 10500 nM.
`COc1cc(-c2nc(C)nc3[nH]c(C)c(Cl)c23)c(Cl)cc1Cl` showed a Ki in experiment [2] of 100 nM.
In experiment [2], `COc1cc(Cl)ccc1-c1cc(C)nc(N)n1` gave a Ki of 2700 nM. Besides, the concentration for half-maximal inhibition (IC50) in experiment [3] is 27000 nM.
In turn, `COc1cc(-c2cc(N)nc(C)n2)c(Cl)cc1Cl` came in with a Ki in experiment [2] of 10000 nM.
In experiment [2], `COc1cc(-c2nc(C)nc3[nH]c(C)cc23)c(Cl)cc1Cl` yielded a Ki of 2000 nM.
On the same count and under the same terms, as for `Cc1cc(-c2cccn2C(=O)OC(C)(C)C)nc(N)n1`, the figure is 3700 nM; as for `COc1cc(-c2nc(C)nc3[nH]ccc23)c(Cl)cc1Cl`, 1700 nM.
Molecule `CC(C)(C)OC(=O)n1cccc1-c1cc(Cl)nc(N)n1` displayed a Ki in experiment [2] of 300 nM. Also, the IC50 in experiment [3] worked out at 45000 nM.
The corresponding values for `CCc1[nH]c2nc(C)nc(-c3cc(OC)c(Cl)cc3Cl)c2c1C#N` are 15 nM and 500 nM.
The corresponding values for `COc1cc(-c2nc(C)nc3[nH]cc(Cl)c23)c(Cl)cc1Cl` are 200 nM and 2000 nM.
For the molecule `COc1cc(-c2nc(C)nc3[nH]cc(F)c23)c(Cl)cc1Cl`, in experiment [2], affinity was put at a Ki of 200 nM. That is a sub-micromolar value.
The same measure, in the same setting: as for `COc1cc(-c2nc(C)nc3[nH]cc(C(C)=O)c23)c(Cl)cc1Cl`, the figure is 200 nM.
